Assay results reported in ChEMBL document CHEMBL4804286, “3-amino-4-(4-(4 (dimethylcarbamoyl) phenyl)-1,4-diazepan-1-yl) thieno [2,3-b] pyridine-2-carboxamide for use in cancer therapy and formulations comprising the same” (2020).
Several values for one entry are separate records, joined by “and”; a condition that tells them apart may be missing. Equal entries are not always repeated. Activity calls are given as the source filed them. The calls are words filed in the database; no cut-off is given here.

How the values were obtained:
[1] = molecular target: Serine/threonine-protein kinase RIO2 (Homo sapiens) (UniProt Q9BVS4); conditions: INHIBITOR, dose 2000.0 nM
Description: Inhibition of human RIOK2 at 2000 nM by KINOMEscan assay

[2] = molecular target: Serine/threonine-protein kinase 26 (Homo sapiens) (UniProt Q9P289); experiment: Inhibition of human MST4 assessed as percent of control at 2000 nM by KINOMEscan assay relative to control; parameters: scale not given: the % may be the effect or the level left
[3] = molecular target: Cyclin-dependent kinase 19 (Homo sapiens) (UniProt Q9BWU1); conditions: INHIBITOR, dose 2000.0 nM
Description: Inhibition of human CDK19 at 2000 nM by KINOMEscan assay

[4] = molecular target: Insulin receptor-related protein (Homo sapiens) (UniProt P14616); experiment: Inhibition of human INSRR assessed as percent of control at 2000 nM by KINOMEscan assay relative to control; parameters: scale not given: the % may be the effect or the level left
[5] = molecular target: Serine/threonine-protein kinase MARK2 (Homo sapiens) (UniProt Q7KZI7); experiment: Inhibition of human MARK2 assessed as percent of control at 2000 nM by KINOMEscan assay relative to control; parameters: scale not given: the % may be the effect or the level left
[6] = molecular target: Cyclin-dependent kinase 8/19 (Homo sapiens, UniProt P49336+Q9BWU1); conditions: ST-2
Description: Inhibition of CDK8/CDK19 in ST2 cells by alkaline phosphatase activity assay

[7] = molecular target: Serine/threonine-protein kinase SIK2 (Homo sapiens) (UniProt Q9H0K1); experiment: Inhibition of human SIK2 assessed as percent of control at 2000 nM by KINOMEscan assay relative to control; parameters: scale not given: the % may be the effect or the level left
[8] = tested on: Phosphatidylinositol 4,5-bisphosphate 3-kinase catalytic subunit alpha isoform (Homo sapiens), P42336 [E545K]; experiment: Inhibition of human PIK3CA E545K mutant assessed as percent of control at 2000 nM by KINOMEscan assay relative to control; parameters: scale not given: the % may be the effect or the level left
[9] = molecular target: Mitogen-activated protein kinase kinase kinase 6 (Homo sapiens) (UniProt O95382); experiment: Inhibition of human ASK2 assessed as percent of control at 2000 nM by KINOMEscan assay relative to control; parameters: scale not given: the % may be the effect or the level left
[10] = tested on: Fibroblast growth factor receptor 3 (Homo sapiens), P22607 [G697C]; experiment: Inhibition of human FGFR3 G697C mutant assessed as percent of control at 2000 nM by KINOMEscan assay relative to control; parameters: scale not given: the % may be the effect or the level left
[11] = tested on: Epidermal growth factor receptor (Homo sapiens), P00533 [UNDEFINED MUTATION]; experiment: Inhibition of human EGFR E746-A750del mutant assessed as percent of control at 2000 nM by KINOMEscan assay relative to control; parameters: scale not given: the % may be the effect or the level left
[12] = molecular target: Cyclin-dependent kinase 2 homolog (Plasmodium falciparum (isolate K1 / Thailand)) (UniProt Q07785); experiment: Inhibition of Plasmodium falciparum PFPK5 assessed as percent of control at 2000 nM by KINOMEscan assay relative to control; parameters: scale not given: the % may be the effect or the level left
[13] = molecular target: Ephrin type-A receptor 8 (Homo sapiens) (UniProt P29322); experiment: Inhibition of human EPHA8 assessed as percent of control at 2000 nM by KINOMEscan assay relative to control; parameters: scale not given: the % may be the effect or the level left
[14] = molecular target: Inhibitor of nuclear factor kappa-B kinase subunit alpha (Homo sapiens) (UniProt O15111); experiment: Inhibition of human IKK-alpha assessed as percent of control at 2000 nM by KINOMEscan assay relative to control; parameters: scale not given: the % may be the effect or the level left
[15] = molecular target: Mitogen-activated protein kinase 10 (Homo sapiens) (UniProt P53779); experiment: Inhibition of human JNK3 assessed as percent of control at 2000 nM by KINOMEscan assay relative to control; parameters: scale not given: the % may be the effect or the level left
[16] = molecular target: Mitogen-activated protein kinase kinase kinase kinase 4 (Homo sapiens) (UniProt O95819); experiment: Inhibition of human MAP4K4 assessed as percent of control at 2000 nM by KINOMEscan assay relative to control; parameters: scale not given: the % may be the effect or the level left
[17] = molecular target: Serine/threonine-protein kinase 32B (Homo sapiens) (UniProt Q9NY57); experiment: Inhibition of human YANK2 assessed as percent of control at 2000 nM by KINOMEscan assay relative to control; parameters: scale not given: the % may be the effect or the level left
[18] = molecular target: Ribosomal protein S6 kinase alpha-4 (Homo sapiens) (UniProt O75676); experiment: Inhibition of human N-terminal RPS6KA4 kinase domain assessed as percent of control at 2000 nM by KINOMEscan assay relative to control; parameters: scale not given: the % may be the effect or the level left
[19] = molecular target: Protein kinase C delta type (Homo sapiens) (UniProt Q05655); experiment: Inhibition of human PRKCD assessed as percent of control at 2000 nM by KINOMEscan assay relative to control; parameters: scale not given: the % may be the effect or the level left
[20] = molecular target: Dual specificity protein kinase CLK4 (Homo sapiens) (UniProt Q9HAZ1); experiment: Inhibition of human CLK4 assessed as percent of control at 2000 nM by KINOMEscan assay relative to control; parameters: scale not given: the % may be the effect or the level left
[21] = molecular target: Mitogen-activated protein kinase 15 (Homo sapiens) (UniProt Q8TD08); experiment: Inhibition of human ERK8 assessed as percent of control at 2000 nM by KINOMEscan assay relative to control; parameters: scale not given: the % may be the effect or the level left
[22] = molecular target: MAP kinase-interacting serine/threonine-protein kinase 2 (Homo sapiens) (UniProt Q9HBH9); experiment: Inhibition of human MKNK2 assessed as percent of control at 2000 nM by KINOMEscan assay relative to control; parameters: scale not given: the % may be the effect or the level left
Myc-CaP = experiment: Antiproliferative activity against murine castration-resistant Myc-CaP cells at 1 uM assessed as growth inhibition relative to control; type: functional; conditions: Mus musculus
[23] = molecular target: Calcium/calmodulin-dependent protein kinase type II subunit delta (Homo sapiens) (UniProt Q13557); experiment: Inhibition of human CAMK2D assessed as percent of control at 2000 nM by KINOMEscan assay relative to control; parameters: scale not given: the % may be the effect or the level left
[24] = molecular target: Serine/threonine-protein kinase DCLK3 (Homo sapiens) (UniProt Q9C098); experiment: Inhibition of human DCAMKL3 assessed as percent of control at 2000 nM by KINOMEscan assay relative to control; parameters: scale not given: the % may be the effect or the level left
[25] = molecular target: Protein-tyrosine kinase 6 (Homo sapiens) (UniProt Q13882); experiment: Inhibition of human BRK assessed as percent of control at 2000 nM by KINOMEscan assay relative to control; parameters: scale not given: the % may be the effect or the level left
[26] = molecular target: Tyrosine-protein kinase Fgr (Homo sapiens) (UniProt P09769); experiment: Inhibition of human FGR assessed as percent of control at 2000 nM by KINOMEscan assay relative to control; parameters: scale not given: the % may be the effect or the level left
[27] = molecular target: Serine/threonine-protein kinase Nek3 (Homo sapiens) (UniProt P51956); experiment: Inhibition of human NEK3 assessed as percent of control at 2000 nM by KINOMEscan assay relative to control; parameters: scale not given: the % may be the effect or the level left
[28] = molecular target: Proto-oncogene tyrosine-protein kinase receptor Ret (Homo sapiens) (UniProt P07949); experiment: Inhibition of human RET assessed as percent of control at 2000 nM by KINOMEscan assay relative to control; parameters: scale not given: the % may be the effect or the level left
[29] = molecular target: Tyrosine-protein kinase ITK/TSK (Homo sapiens) (UniProt Q08881); experiment: Inhibition of human ITK assessed as percent of control at 2000 nM by KINOMEscan assay relative to control; parameters: scale not given: the % may be the effect or the level left
[30] = molecular target: Cyclin-G-associated kinase (Homo sapiens) (UniProt O14976); experiment: Inhibition of human GAK assessed as percent of control at 2000 nM by KINOMEscan assay relative to control; parameters: scale not given: the % may be the effect or the level left

Serine/threonine-protein kinase Nek3 (Homo sapiens), sequence (P51956 whole entry): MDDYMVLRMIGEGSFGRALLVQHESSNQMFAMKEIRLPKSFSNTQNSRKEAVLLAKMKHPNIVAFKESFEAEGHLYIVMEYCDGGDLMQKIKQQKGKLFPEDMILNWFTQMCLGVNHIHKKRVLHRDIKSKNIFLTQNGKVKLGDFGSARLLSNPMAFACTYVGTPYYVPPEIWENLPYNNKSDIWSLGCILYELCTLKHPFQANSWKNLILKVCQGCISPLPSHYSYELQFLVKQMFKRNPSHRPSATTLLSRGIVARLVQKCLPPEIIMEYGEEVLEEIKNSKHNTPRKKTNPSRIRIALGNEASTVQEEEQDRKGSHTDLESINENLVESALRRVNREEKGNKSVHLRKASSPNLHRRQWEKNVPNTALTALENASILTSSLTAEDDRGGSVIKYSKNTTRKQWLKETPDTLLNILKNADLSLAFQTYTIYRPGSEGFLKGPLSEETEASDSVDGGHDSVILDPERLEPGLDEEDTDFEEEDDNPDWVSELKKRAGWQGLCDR
Cyclin-dependent kinase 2 homolog (Plasmodium falciparum (isolate K1 / Thailand)), sequence (Q07785 whole entry): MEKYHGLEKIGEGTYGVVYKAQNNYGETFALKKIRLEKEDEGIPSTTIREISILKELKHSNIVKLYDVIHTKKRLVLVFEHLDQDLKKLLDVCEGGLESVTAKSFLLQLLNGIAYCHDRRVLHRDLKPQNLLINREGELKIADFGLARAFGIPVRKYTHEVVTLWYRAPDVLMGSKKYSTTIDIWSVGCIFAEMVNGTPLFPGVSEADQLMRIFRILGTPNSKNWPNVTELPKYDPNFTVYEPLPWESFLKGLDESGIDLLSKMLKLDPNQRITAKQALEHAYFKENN
Phosphatidylinositol 4,5-bisphosphate 3-kinase catalytic subunit alpha isoform (Homo sapiens), P42336 [E545K], sequence (P42336 whole entry E545K, canonical isoform): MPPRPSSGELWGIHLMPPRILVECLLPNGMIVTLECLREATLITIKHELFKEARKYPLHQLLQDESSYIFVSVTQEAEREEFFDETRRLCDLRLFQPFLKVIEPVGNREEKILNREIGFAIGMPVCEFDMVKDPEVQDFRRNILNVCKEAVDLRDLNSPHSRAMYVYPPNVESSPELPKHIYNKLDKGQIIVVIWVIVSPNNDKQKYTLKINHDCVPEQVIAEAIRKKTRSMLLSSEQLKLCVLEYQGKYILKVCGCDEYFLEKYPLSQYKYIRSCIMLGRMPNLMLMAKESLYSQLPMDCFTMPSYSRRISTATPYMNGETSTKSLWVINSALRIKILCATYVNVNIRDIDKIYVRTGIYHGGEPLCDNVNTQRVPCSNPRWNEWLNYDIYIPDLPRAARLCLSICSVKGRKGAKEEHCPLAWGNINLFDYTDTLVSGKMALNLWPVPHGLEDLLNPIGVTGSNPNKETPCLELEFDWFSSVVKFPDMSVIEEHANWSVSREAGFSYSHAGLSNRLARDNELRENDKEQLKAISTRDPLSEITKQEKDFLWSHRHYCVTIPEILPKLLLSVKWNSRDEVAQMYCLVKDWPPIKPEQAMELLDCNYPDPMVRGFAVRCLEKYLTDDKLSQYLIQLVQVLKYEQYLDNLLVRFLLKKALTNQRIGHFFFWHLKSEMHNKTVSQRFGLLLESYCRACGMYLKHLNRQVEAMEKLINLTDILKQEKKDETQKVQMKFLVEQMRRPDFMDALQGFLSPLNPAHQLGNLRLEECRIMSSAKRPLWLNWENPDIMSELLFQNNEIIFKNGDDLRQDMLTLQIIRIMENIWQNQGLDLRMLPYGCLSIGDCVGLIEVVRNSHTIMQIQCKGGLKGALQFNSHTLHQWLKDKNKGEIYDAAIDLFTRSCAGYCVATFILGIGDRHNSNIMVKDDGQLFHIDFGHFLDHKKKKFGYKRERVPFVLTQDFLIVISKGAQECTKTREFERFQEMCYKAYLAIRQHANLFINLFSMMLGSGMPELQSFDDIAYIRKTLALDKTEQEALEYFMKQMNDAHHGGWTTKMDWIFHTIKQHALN
Serine/threonine-protein kinase SIK2 (Homo sapiens), sequence (Q9H0K1 whole entry, looked up, canonical isoform): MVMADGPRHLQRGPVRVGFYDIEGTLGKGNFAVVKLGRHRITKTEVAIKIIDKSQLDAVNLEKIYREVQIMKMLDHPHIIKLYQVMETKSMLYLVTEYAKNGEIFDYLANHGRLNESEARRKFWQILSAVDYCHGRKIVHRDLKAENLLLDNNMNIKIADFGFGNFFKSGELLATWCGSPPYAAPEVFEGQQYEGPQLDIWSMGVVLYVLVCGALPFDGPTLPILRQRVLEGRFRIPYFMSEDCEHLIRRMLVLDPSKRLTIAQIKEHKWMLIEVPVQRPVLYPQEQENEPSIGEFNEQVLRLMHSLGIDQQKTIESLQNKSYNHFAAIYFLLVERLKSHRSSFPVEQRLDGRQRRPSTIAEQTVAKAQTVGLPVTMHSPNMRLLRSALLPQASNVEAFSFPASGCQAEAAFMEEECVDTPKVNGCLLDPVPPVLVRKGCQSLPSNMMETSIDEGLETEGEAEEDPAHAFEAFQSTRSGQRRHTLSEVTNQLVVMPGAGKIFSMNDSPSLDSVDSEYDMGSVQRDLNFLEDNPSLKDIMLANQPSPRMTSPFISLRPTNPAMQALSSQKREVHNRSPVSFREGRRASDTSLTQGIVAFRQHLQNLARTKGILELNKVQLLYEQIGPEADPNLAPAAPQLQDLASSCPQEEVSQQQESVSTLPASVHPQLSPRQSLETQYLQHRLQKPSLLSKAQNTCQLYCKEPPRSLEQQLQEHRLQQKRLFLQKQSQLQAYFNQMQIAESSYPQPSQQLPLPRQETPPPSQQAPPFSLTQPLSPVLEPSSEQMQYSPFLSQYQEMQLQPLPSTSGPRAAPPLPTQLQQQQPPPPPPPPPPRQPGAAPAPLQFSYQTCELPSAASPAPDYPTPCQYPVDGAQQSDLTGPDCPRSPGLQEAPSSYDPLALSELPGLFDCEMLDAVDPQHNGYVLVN
Protein kinase C delta type (Homo sapiens), sequence (Q05655 whole entry, looked up): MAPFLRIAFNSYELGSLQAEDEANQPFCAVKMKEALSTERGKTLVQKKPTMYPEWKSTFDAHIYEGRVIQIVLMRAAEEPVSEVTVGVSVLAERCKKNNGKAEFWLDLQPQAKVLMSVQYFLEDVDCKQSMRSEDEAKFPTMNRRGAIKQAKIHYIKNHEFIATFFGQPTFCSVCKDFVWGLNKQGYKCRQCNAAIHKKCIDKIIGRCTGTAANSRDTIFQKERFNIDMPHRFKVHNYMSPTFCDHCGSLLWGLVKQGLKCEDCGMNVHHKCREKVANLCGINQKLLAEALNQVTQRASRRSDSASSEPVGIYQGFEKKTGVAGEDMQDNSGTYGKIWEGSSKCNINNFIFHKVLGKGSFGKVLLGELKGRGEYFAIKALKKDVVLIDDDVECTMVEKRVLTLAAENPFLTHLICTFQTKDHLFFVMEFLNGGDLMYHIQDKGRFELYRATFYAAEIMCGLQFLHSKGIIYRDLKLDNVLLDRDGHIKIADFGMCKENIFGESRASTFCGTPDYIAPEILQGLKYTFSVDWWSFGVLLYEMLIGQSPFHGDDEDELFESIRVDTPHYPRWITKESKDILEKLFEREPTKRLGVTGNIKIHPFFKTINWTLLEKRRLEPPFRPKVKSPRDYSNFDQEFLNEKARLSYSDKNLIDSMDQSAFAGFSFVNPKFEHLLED
Serine/threonine-protein kinase 32B (Homo sapiens), sequence (Q9NY57 whole entry, the tested form may be a part): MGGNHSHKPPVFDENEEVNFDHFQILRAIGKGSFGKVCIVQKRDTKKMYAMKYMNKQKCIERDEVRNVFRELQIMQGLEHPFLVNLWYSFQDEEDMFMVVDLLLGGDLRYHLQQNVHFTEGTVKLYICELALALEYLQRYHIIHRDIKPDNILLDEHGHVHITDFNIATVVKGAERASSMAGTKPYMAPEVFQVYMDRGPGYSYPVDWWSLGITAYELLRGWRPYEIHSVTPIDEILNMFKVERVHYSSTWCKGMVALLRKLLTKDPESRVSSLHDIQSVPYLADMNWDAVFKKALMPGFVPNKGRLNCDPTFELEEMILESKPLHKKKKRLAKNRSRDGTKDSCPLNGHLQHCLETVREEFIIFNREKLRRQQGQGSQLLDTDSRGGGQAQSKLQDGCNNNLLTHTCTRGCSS
Inhibitor of nuclear factor kappa-B kinase subunit alpha (Homo sapiens), sequence (O15111 whole entry): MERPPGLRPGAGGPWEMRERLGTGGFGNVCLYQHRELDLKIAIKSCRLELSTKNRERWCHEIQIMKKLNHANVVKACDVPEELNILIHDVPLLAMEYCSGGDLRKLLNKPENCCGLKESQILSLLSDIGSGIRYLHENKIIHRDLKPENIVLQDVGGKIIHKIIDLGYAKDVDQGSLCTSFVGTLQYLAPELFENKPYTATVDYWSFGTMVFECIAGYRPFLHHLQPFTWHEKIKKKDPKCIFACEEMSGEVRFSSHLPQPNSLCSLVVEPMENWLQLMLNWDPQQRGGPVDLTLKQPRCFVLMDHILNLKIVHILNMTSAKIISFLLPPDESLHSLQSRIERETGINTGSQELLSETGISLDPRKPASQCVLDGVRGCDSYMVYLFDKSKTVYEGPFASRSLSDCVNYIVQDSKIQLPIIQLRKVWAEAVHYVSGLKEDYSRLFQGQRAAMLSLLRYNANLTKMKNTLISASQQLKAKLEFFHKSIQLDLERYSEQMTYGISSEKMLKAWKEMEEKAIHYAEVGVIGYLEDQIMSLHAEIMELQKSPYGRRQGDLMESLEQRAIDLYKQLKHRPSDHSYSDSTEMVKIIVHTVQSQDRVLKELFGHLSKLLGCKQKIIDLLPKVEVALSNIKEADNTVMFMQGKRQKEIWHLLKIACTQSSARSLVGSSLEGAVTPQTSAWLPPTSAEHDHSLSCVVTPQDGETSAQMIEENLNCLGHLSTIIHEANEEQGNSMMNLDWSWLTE
Serine/threonine-protein kinase 26 (Homo sapiens), sequence (Q9P289 2-416 limits assumed): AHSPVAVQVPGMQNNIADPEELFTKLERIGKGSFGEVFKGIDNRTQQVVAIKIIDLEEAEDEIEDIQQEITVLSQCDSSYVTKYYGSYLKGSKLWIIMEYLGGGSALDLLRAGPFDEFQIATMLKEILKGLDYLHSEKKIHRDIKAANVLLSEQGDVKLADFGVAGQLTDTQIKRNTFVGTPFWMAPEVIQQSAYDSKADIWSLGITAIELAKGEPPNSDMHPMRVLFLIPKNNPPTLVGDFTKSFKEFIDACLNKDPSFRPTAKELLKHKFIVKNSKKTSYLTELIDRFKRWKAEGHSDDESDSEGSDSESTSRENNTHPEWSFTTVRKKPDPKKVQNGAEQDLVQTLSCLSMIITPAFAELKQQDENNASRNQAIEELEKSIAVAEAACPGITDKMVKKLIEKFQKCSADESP

## CN(C)C(=O)c1ccc(N2CCCN(c3ccnc4sc(C(N)=O)c(N)c34)CC2)cc1
[1]
  inhibition: > 65%
[2]
  Activity: 95% and 89%
[3]
  inhibition: > 65%
[4]
  Activity: 99% and 89%
[5]
  Activity: 100% and 96%
[6]
  EC200: 31.9 nM
[7]
  Activity: 96% and 100%
[8]
  Activity: 96% and 91%
[9]
  Activity: 90% and 88%
[10]
  Activity: 95% and 100%
[11]
  Activity: 100%
[12]
  Activity: 68% and 67%
[13]
  Activity: 94% and 83%
[14]
  Activity: 77% and 90%
[15]
  Activity: 91%
[15]; INHIBITOR
  Activity: 44%
[16]
  Activity: 100% and 93%
[17]
  Activity: 89% and 84%
[18]
  Activity: 96% and 100%
[19]
  Activity: 100% and 92%
[20]
  Activity: 59% and 66%
[21]
  Activity: 98% and 99%
[22]
  Activity: 83% and 69%
Myc-CaP
  Activity: Active
[23]
  Activity: 99% and 92%
[24]
  Activity: 91% and 100%
[25]
  Activity: 100% and 99%
[26]
  Activity: 100%
[27]
  Activity: 100% and 76%
[28]
  Activity: 93% and 86%
[29]
  Activity: 88% and 87%
[30]
  Activity: 88% and 94%
